In brackets after ≈: the same amount, converted by molar mass. Entries after “also recorded” stand apart in the source; their conditions may differ.
Tests used:
iNOS mRNA = iNOS mRNA expression in LPS-stimulated RAW 264.7 cells (RT-PCR); type: cell-based, murine; details: 20-40 μg/mL
Description: Doxycycline and minocycline may suppress iNOS before the synthesis of the enzyme, leading to inhibition of iNOS protein expression, specific activity and accumulation of nitrite. […] Therefore, to determine the level at which tetracycline inhibited iNOS protein expression, RAW 264.7 cells treated with LPS in the presence or absence of doxycycline and minocycline were analyzed for iNOS mRNA by semi-quantitative RT-PCR.
The presence of iNOS and β-actin mRNA in cells was analyzed by reverse transcription (RT) of total RNA followed by PCR amplification of the cDNA. The sense and antisense oligonucleotides for iNOS were, respectively, 5'-ACGGAGAAGCTTAGATCTGGAGCAGAAGTG-3'(142 to 171) (SEQ ID NO:1) and 5'-CTGCAGGTTGGACCACTGGATCCTGCCGAT-3' (767 to 796) (SEQ ID NO:2). The sense and antisense primers for β-actin were 5'-TCCTTCGTTGCCGGTCCACA-3' (44 to 63) (SEQ ID NO:3) and 5'-CGTCTCCGGAGTCCATCACA-3' (534 to 552) (SEQ ID NO:4), respectively. The predicted PCR product of the iNOS cDNA was 654 bp; that of the β-actin cDNA was 508 bp. The polymerase chain reaction was carried out in an automated DNA thermal cycle (Perkin-Elmer Cetus, Norwalk, Conn.). The total RNA was extracted using TRI-Reagent (MRC Inc., Cincinnati, Ohio). The cDNA was prepared from equal amounts (1-5 μg) of total RNA using a SuperScript™ RNase H Reverse Transcriptase (Gibco BRL, Gaithersburg, Md.). An equal amount of the cDNA was used to amplify the mRNA by PCR. PCR amplification was performed in 50 μL solution containing 1.5 mM MgCl2, 500 ng iNOS primer, 100 ng β-actin primer, 0.2 mM of each dNTP, 2.5 units of Taq DNA polymerase (Gibco). The cycle conditions for amplification of cDNA were 1 min at 94° C., 1-2 min at 55° C. and 3 min at 72° C. for 30 cycles for both iNOS and β-actin. The PCR product was analyzed by electrophoresis on 1.0% agarose gels.
RT-PCR analysis of iNOS and βactin mRNA expression in RAW 264.7 cells was carried out after stimulation with LPS±doxycycline or minocycline. […] Equal amounts of RNA were analyzed for iNOS and β-actin expression as described above.

β-actin = β-actin levels in LPS-activated RAW 264.7 cells (Western blot); type: cell-based, murine; details: 20-80 μg/mL
Description: RAW 264.7 cells were activated with 100 ng/mL LPS for 16-18 h, with and without doxycycline or minocycline (20-80 μg/mL) or with hydrocortisone (10 μM). Cell-free extracts were prepared as described above. The extract s were analyzed for 133 kD iNOS by Western blotting, using specific anti-iNOS antibodies.
Equal amounts of protein (25-50 μg) estimated by BCA reagent (Pierce, Rockford, Ill.) were loaded onto SDS-PAGE gels and stained to verify the concentrations of various protein fractions by examining the intensities of the protein bands on the gels. Western blot analysis was carried out from the same cell extracts. The Western-blotted membrane was probed with a specific anti-murine iNOS monoclonal antibody (Transduction Laboratories, Lexington, Ky.), as specified by the supplier. The same blot was also probed with an anti-actin antibody generously provided by Dr. James L. Lessard (Children's Hospital Medical Center, Cincinnati, Ohio). The blots were developed using the ECL Western blot system (Amersham, Arlington Heights, Ill.). Quantitation of the bands was performed using a densitometer from Molecular Dynamics (Sunnyvale, Calif.). FIG. 5 is representative.

iNOS = target: T1, iNOS (Mus musculus, UniProt P29477); assay: direct effect on specific activity of iNOS in cell-free extracts (L-arginine-to-L-citrulline conversion); type: biochemical, murine; details: for effect on the specific activity of iNOS in cell-free extracts: 20-80 μg/mL, 15 min preincubation; for effect on an ongoing L-arginine-to-L-citrulline reaction catalyzed by iNOS: cell-free extracts
T1 construct: prepared cell-free extracts as a source of iNOS enzyme; (cells); host or cells: RAW 264.7 murine macrophages, LPS-stimulated
Description: To evaluate the direct effect of doxycycline and minocycline on iNOS activity, we induced RAW 264.7 cells with LPS for 16 h in the absence of these agents and prepared cell-free extracts as a source of iNOS enzyme in the L-arginine-to-L-citrulline conversion assay.
Separate aliquots of the enzyme-containing cell-free extracts were preincubated for 15 min with 20-80 μg/ mL doxycycline, 20-80 μg/mL minocycline, 1 mM N-acetylimidazole and 200 μM L-NMMA, respectively, before the enzyme reaction was initiated by adding the co-factors. Various modulators including methanol (MeOH), the carrier for NAI (N-acetylimidazole), were added 15 min prior to the addition of the co-factors to initiate the iNOS reaction, as described. The specific activity was calculated and percent inhibition was compare to the original LPS-stimulated extract; 100% specific activity was 200 pmol citrulline/min/mg protein. The data shown in FIG. 4 represent one of two similar experiments.

[1] = test system: inducible OA-NOS in OA-affected cartilage; assay: NO (nitrite) release from OA-affected cartilage in organ culture; type: cell-based, human; details: for inhibition of NO production in OA-affected cartilage: 5-80 μg/mL, 24-72 h, ex vivo; for IC50: Homo sapiens, 72 h
Description: We examined whether tetracyclines, e.g., doxycycline or minocycline, could block human OA-NOS activity under ex vivo conditions. Generally accepted pharmacologically relevant concentrations were selected for this study based on previous reports (Greenwald 1994, Yu et al. 1991, Cole et al. 1994, Mallya et al. 1994). OA-affected cartilage was obtained from patients with advanced OA undergoing knee replacement surgery and free of steroidal/nonsteroidal antiinflammatory drugs for at least 2 wk before surgery. OA-affected cartilage slices (FIGs. 1A-1C) were incubated in 0.1% BSA/endotoxin-free medium with 5-80 μg/mL of doxycycline or minocycline (Sigma Chemical Co., St. Louis, Mo.) for 24, 48 and 72 h in ex vivo conditions.
The assay of OA-iNOS in organ culture was basically carried out as described previously (Amin et al. 1995a). Briefly, the OA-affected cartilage was cultured in the presence or absence (Control) of doxycycline and minocycline at 5-80 μg/mL, for 24-72 h in an incubator (37° C.). Activity of NOS was monitored at different time intervals by estimating the amount of the stable end-product, nitrite, in the medium by a modified Griess reaction (Gilliam et al. 1993) using an ELISA reader. The amount of NO spontaneously released (as measured by nitrite accumulation) at 0, 24, 48 and 72 h was 0, 4.8±0.38, 16.4±0.7, and 17.8±0.9 μM, respectively. Data are expressed as μM nitrite released±(SD), n=3-4. The statistics were derived using unpaired Student's t test. FIGS. 1A-1C show a time series of graphs (1A=24 h; 1B=48 h; and IC=72 h) summarizing data representing one of three identical experiments with samples from different patients.

SMILES | decrease of iNOS mRNA expression (iNOS mRNA) | effect on the levels of β-actin synthesis (β-actin) | effect on the specific activity of iNOS in cell-free extracts (iNOS) | effect on an ongoing L-arginine-to-L-citrulline reaction catalyzed by iNOS (iNOS) | inhibition of NO production in OA-affected cartilage [1] | IC50 [1]
C[C@H]1c2cccc(O)c2C(O)=C2C(=O)[C@]3(O)C(O)=C(C(N)=O)C(=O)[C@@H](N(C)C)[C@@H]3[C@@H](O)[C@@H]21 [doxycycline] | > 50% | no significant effect | minimal effect; also recorded: no significant effect | could not block | significantly inhibited NO production in OA-affected cartilage in a dose-dependent manner | 32 µg/mL (≈ 72 µM)
CN(C)c1ccc(O)c2c1C[C@H]1C[C@H]3[C@H](N(C)C)C(O)=C(C(N)=O)C(=O)[C@@]3(O)C(O)=C1C2=O [minocycline] | > 50% | no significant effect | minimal effect; also recorded: no significant effect | could not block | significantly inhibited NO production in OA-affected cartilage in a dose-dependent manner | 54 µg/mL (≈ 118 µM)

Reference: US5789395A, “Method of using tetracycline compounds for inhibition of endogenous nitric oxide production” (The Research Foundation of State University of New York, priority 1996, dated 1998)
